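The compound was tested at five concentrations on cells cultured in 96-well plates, with a 48-hour exposure period. GI50 = concentration required for 50% inhibition of growth.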 Activity calls are given as the source filed them. Cut-off read from the data, not from the text of the source: active = GI50 up to about 1.1 µM and inactive = higher.
Tests used:
Experiment in all cases: DTP human tumour cell line panel, 48 h
[1] = test system: IGROV-1
[2] = test system: UO-31
[3] = test system: EKVX
[4] = test system: COLO 205
[5] = test system: KM12
[6] = test system: TK-10
[7] = test system: ACHN
[8] = test system: SNB-75
[9] = test system: SN12C
[10] = test system: 786-0
[11] = test system: K562
[12] = test system: A549
[13] = test system: OVCAR-4
[14] = test system: SK-MEL-5
[15] = test system: SK-MEL-28
[16] = test system: NCI-H226
[17] = test system: SR

Measured: GI50

C#CC[N+](C)(CC#C)CC#C
inactive: [1] > 100 µM | [2] > 100 µM | [3] > 100 µM | [4] > 100 µM | [5] > 100 µM | [6] > 100 µM | [7] > 100 µM | [8] > 100 µM | [9] > 100 µM | [10] > 100 µM | [11] > 100 µM | [12] > 100 µM | [13] > 100 µM | [14] > 100 µM | [15] > 100 µM

O/N=C1/C(=C/c2ccc(Br)cc2)CCCC1C(NO)c1ccc(Br)cc1 (stereo unspecified)
inactive: [1] 17.1 µM | [2] 16 µM | [3] > 10 µM | [4] 15.3 µM | [5] 19.2 µM | [6] 18.3 µM | [7] 17 µM | [8] 19.1 µM | [9] 12.4 µM | [10] 16.8 µM | [11] > 100 µM | [12] 15.4 µM | [13] 10.4 µM | [15] 18.6 µM

Cn1c(=O)nc2n(-c3cccc(Cl)c3)c3ccccc3nc-2c1=O
inactive: [1] 24.8 µM | [2] 34.9 µM | [3] 12 µM | [4] 4.11 µM | [5] 11.2 µM | [16] 22 µM | [6] 17 µM | [7] 3.63 µM | [8] 15.3 µM | [9] 12.8 µM | [10] 15.6 µM | [11] 14.1 µM | [12] 11.4 µM | [13] 11.6 µM | [14] 10.5 µM

O=C(O[C@H]1[C@@H]2C=CO[C@@H](OC3OC(CO)C(O)C(O)C3O)[C@@H]2[C@@]2(CO)O[C@@H]12)c1ccc(O)c(O)c1 (stereo partly specified)
inactive: [1] > 100 µM | [2] > 100 µM | [3] > 100 µM | [4] > 100 µM | [5] > 100 µM | [6] > 100 µM | [7] > 100 µM | [8] > 100 µM | [9] > 100 µM | [10] > 100 µM | [11] > 100 µM | [12] > 100 µM | [13] > 100 µM | [14] > 100 µM | [15] > 100 µM

C/C(CC(=O)CCC(=O)Nc1cccc(C(F)(F)F)c1)=N\NC(=O)NN
inactive: [1] > 100 µM | [2] > 100 µM | [3] > 100 µM | [4] > 100 µM | [5] > 100 µM | [16] > 100 µM | [6] > 100 µM | [7] > 100 µM | [8] > 100 µM | [9] > 100 µM | [10] > 100 µM | [11] > 100 µM | [12] > 100 µM | [13] > 100 µM | [14] > 100 µM | [15] > 100 µM

CCCCCCCCCCNCCSSCc1ccc(Cl)cc1
active: [14] 0.509 µM | [15] 0.366 µM
inactive: [1] 2.94 µM | [2] 2.25 µM | [3] 3.06 µM | [4] 2.39 µM | [5] 1.36 µM | [6] 2.18 µM | [7] 4.68 µM | [8] 5.86 µM | [9] 1.91 µM | [10] 5.71 µM | [11] 1.24 µM | [12] 1.85 µM | [13] 1.71 µM

O=C1CCCC/C1=C/C=C/c1ccccc1
inactive: [1] > 100 µM | [2] 44.4 µM | [4] > 100 µM | [5] 42.2 µM | [16] > 100 µM | [6] > 100 µM | [7] 71.4 µM | [8] 32.7 µM | [9] > 100 µM | [10] > 100 µM | [11] 32.4 µM | [12] 52.5 µM | [13] 63.8 µM | [14] 41.2 µM | [15] > 100 µM

Cc1nc(Nc2ccccc2)sc1C(=O)CC(=O)C(=O)Nc1c(C(C)C)cccc1C(C)C
inactive: [1] > 100 µM | [2] 78.5 µM | [3] 19.8 µM | [4] > 100 µM | [5] > 100 µM | [16] > 100 µM | [6] > 100 µM | [7] 95.1 µM | [9] > 100 µM | [10] > 100 µM | [11] 83 µM | [12] > 100 µM | [13] > 100 µM | [14] > 100 µM | [17] 20.6 µM | [15] > 100 µM

Reference: ChEMBL document CHEMBL1201862, “PubChem BioAssay data set” (2004)
